{
  "source": "patent US8470874B2",
  "about": "“Pharmaceutical compositions comprising cannabichromene type compounds” (GW Pharma Limited, priority 2003, dated 2013)",
  "key": {"rats [1]": {"test_system": "rats", "conditions": "co-administration of CBC with THC; cited from earlier work"}, "rat paw edema": {"test_system": "rat paw edema", "conditions": "in vivo, equivalent doses; cited from earlier work"}, "mice": {"test_system": "mice", "conditions": "cited from earlier work"}, "rats [2]": {"test_system": "rats", "conditions": "cited from earlier work"}, "C57BL6BYJ mice": {"test_system": "C57BL6BYJ mice", "test": "tail suspension test", "type": "in vivo", "conditions": "male mice", "experimental": "The experiment used 112 C57BL6BYJ mice (Jackson Laboratories, Bar Harbor, Me.) which were housed in same sex groups (n=3-5) and maintained on a reversed 12 h light-dark cycle, with all testing being completed during the first 4 h of the dark phase cycle. Food and water were provided ad libitum except during behavioural testing. The subjects were six weeks old at the time of testing and consisted of groups with equal numbers of males (18-26 g) and females (15-21 g).\nThe substantially pure CBC extract (54.0 mg/ml in ethanol) was diluted in Tween 80 and subsequently diluted further to the correct dose with PBS (pH 7.4). The final concentration of Tween 80 was 5% for all preparations.\nImipramine (30 mg/kg) was used as an antidepressant control and diluted as per the CBC extract. Test article at doses of 0, 5, 10, 20, 40, 80 mg/kg/0.01 ml/g bodyweight were administered i.p. under sodium light to minimise exposure to light.\nFor the tail suspension test, a sound-attenuated chamber (Lafayette Instruments, Lafayette, Ind.) with a titanium bar (1 cm diameter×24 cn long) mounted 15 cm from the floor of the test chamber was used. An opto-electronic sensor was mounted in a 4 cm×4 cm white plastic column and positioned 5 cm from the mounting bar. An infra-red light transmitted from the light emitting diode onto the animal. If the animal moved, the amount of light collected by the phototransistor would increase or decrease depending on the size and duration of the movement. The opto-electric sensor was connected to an interface designed to condition and amplify the signal (range 0-10 volts) and then send the amplified signal to an A/D interface board (Powerlab 4/s: AD Instruments, Mountain View, Calif.) connected to a Macintosh G4 microcomputer. The duration of the experiment and the recording of raw behavioural responses was controlled and saved to a data file using Chart 3.6 data collection software (AD Instruments, Mountain View, Calif.).\nOn the day of testing, the mice were weighed and randomly assigned to groups with the restriction that equal numbers of males and females be represented in each group. Test article or control drug was injected intraperitoneally. Thirty minutes later each mouse was tested on the tail-suspension test for six minutes.\nThe mouse was suspended from a bar by the tail using adhesive tape so that the tip of their nose was 2 cm from the floor of the tail suspension chamber. The photodiode was then placed 5 cm away from the subject and aimed at the middle of the subject's ventral surface. Each subject was tested for six minutes. The total number of movements and total amount of time spent immobile were recorded. […] A period of immobility was counted only if no movements above 350 mV were recorded for at least 1000 ms. The total amount of time spent immobile was calculated by summing the duration of the individual immobility periods. These criteria were selected to be similar to those used in previous tail suspension studies (e.g., Steru et al., 1985).\nAntidepressant effects are indicated by an increase in the frequency of struggling activity during the test. In addition the degree or amplitude of struggling is thought to be a predictor of antidepressant activity.\nThe results shown in FIGS. 2 to 7 are from the male mice only as the data obtained from the female mice were confounded by the oestrous cycle."}, "erythrocyte membrane": {"test_system": "erythrocyte membrane", "conditions": "in vitro, equivalent doses; cited from earlier work"}, "prostaglandin synthesis": {"test_system": "prostaglandin synthesis", "conditions": "in vitro; cited from earlier work"}, "dogs": {"test_system": "dogs", "conditions": "cited from earlier work"}, "monkeys or humans": {"test_system": "monkeys or humans", "conditions": "cited from earlier work"}},
  "note": "Read-outs that look alike come from different tables or passages of the source.",
  "data": [
    {"smiles": "CCCCCc1cc(O)c2c(c1)OC(C)(CCC=C(C)C)C=C2", "note": "(centres unmarked) [CBC, cannabichromene]", "values": [
      {"measurement": "effect on THC changes in heart rate", "setting": "rats [1]", "value": "potentiates the THC changes in heart rate"},
      {"measurement": "effect on THC's hypotensive effects", "setting": "rats [1]", "value": "does not potentiate THC's hypotensive effects"},
      {"measurement": "anti-inflammatory effect compared with phenylbutazone", "setting": "rat paw edema", "value": "as effective as phenylbutazone (PBZ)"},
      {"measurement": "LD50", "setting": "mice; single intraperitoneal dose", "value": 113.4, "unit": "mg/kg"},
      {"measurement": "muscular coordination", "setting": "rats [2]", "value": "decreased muscular coordination"},
      {"measurement": "all activity compared with imipramine", "setting": "C57BL6BYJ mice; CBC 10 mg/kg/0.01 ml/g bodyweight i.p. vs imipramine 30 mg/kg", "value": "comparable to those observed in the mice administered imipramine"},
      {"measurement": "degree of struggling (percentage very large vigorous movements), mean", "setting": "C57BL6BYJ mice; CBC 20 mg/kg/0.01 ml/g bodyweight i.p.", "value": 31.4, "unit": "%"},
      {"measurement": "degree of struggling (percentage very large vigorous movements), mean", "setting": "C57BL6BYJ mice; CBC 80 mg/kg/0.01 ml/g bodyweight i.p.", "value": 30.2, "unit": "%"},
      {"measurement": "number of large vigorous movements compared with imipramine", "setting": "C57BL6BYJ mice; CBC 10 and 40 mg/kg/0.01 ml/g bodyweight i.p. vs imipramine 30 mg/kg", "value": "comparable number of large vigorous movements"},
      {"measurement": "number of large vigorous movements compared with imipramine", "setting": "C57BL6BYJ mice; CBC 20 or 80 mg/kg/0.01 ml/g bodyweight i.p. vs imipramine 30 mg/kg", "value": "greater number of large vigorous movements in the animals than imipramine"},
      {"measurement": "most efficient dose for antidepressant action", "setting": "C57BL6BYJ mice; i.p., from Fisher's PLSD of struggling", "value": "20 mg/kg/0.01 ml/g bodyweight"},
      {"measurement": "anti-inflammatory effect compared with phenylbutazone", "setting": "erythrocyte membrane", "value": "as effective as phenylbutazone (PBZ)"},
      {"measurement": "inhibition of prostaglandin synthesis", "setting": "prostaglandin synthesis", "value": "less potently than THC or CBD"},
      {"measurement": "sedation", "setting": "dogs", "value": "causes sedation"},
      {"measurement": "cannabimimetic activity", "setting": "monkeys or humans", "value": "has not been shown to cause any cannabimimetic activity"}
    ]},
    {"smiles": "CCCCCc1cc(O)c2c(c1)OC1(C)CCC3C1C2C3(C)C", "note": "(centres unmarked) [Cannabicyclol]", "values": [
      {"measurement": "inhibition of prostaglandin synthesis", "setting": "prostaglandin synthesis", "value": "almost no inhibitory activity"}
    ]},
    {"smiles": "CCCCCc1cc(O)cc(O)c1", "note": "[Olivetol]", "values": [
      {"measurement": "inhibition of prostaglandin synthesis", "setting": "prostaglandin synthesis", "value": "high activity"}
    ]},
    {"smiles": "CN(C)CCCN1c2ccccc2CCc2ccccc21", "note": "[imipramine, reference compound]", "values": [
      {"measurement": "activity mean (all activity)", "setting": "C57BL6BYJ mice; imipramine 30 mg/kg/0.01 ml/g bodyweight i.p., 30 min after dosing, 6 min test", "value": 733.5}
    ]},
    {"smiles": "CCCCCc1cc(O)c2c(c1)OC(C)(C)[C@@H]1CCC(C)=C[C@@H]21", "note": "[Δ9-THC]", "values": [
      {"measurement": "LD50", "setting": "mice; single intraperitoneal dose", "value": 276.3, "unit": "mg/kg"},
      {"measurement": "LD50", "setting": "mice; Δ9-THC with 25 mg/kg CBC given concurrently", "value": 152.0, "unit": "mg/kg"}
    ]}
  ]
}
